Assay results from PMC4467398, “Preclinical antitumor activity of ST7612AA1: a new oral thiol-based histone deacetylase (HDAC) inhibitor” (Oncotarget, 2014).

Tested on: DOHH2 and TMD8 DLBCL cells
Experiment: Gene expression profiling (HumanHT-12 v4 BeadChip, limma), ST7612AA1 300 nM 8 hrs vs DMSO
Type: cell-based, human

CC(=O)SCCCCC[C@H](NC(=O)[C@H]1CCC(=O)N1)C(=O)Nc1ccccc1 [ST7612AA1]
AveExpr.ST7612 TANK (probe ILMN_1715069) (300 nM 8 hrs): 8.21E-01 | AveExpr.ST7612 TBC1D7 (probe ILMN_1661622) (300 nM 8 hrs): 7.33E-01 | AveExpr.ST7612 TBC1D16 (probe ILMN_1758457) (300 nM 8 hrs): 7.24E-01 | AveExpr.ST7612 TCEA2 (probe ILMN_1665526) (300 nM 8 hrs): 8.50E-01 | AveExpr.ST7612 TCEAL3 (probe ILMN_1734190) (300 nM 8 hrs): 7.88E-01 | AveExpr.ST7612 TCTN1 (probe ILMN_1685124) (300 nM 8 hrs): 7.81E-01 | AveExpr.ST7612 TESK2 (probe ILMN_1654370) (300 nM 8 hrs): 8.37E-01 | AveExpr.ST7612 TMEM14A (probe ILMN_1785191) (300 nM 8 hrs): 7.29E-01 | AveExpr.ST7612 TMEM49 (probe ILMN_1692754) (300 nM 8 hrs): 8.49E-01 | AveExpr.ST7612 TMEM154 (probe ILMN_2088124) (300 nM 8 hrs): 6.89E-01 | AveExpr.ST7612 TMOD2 (probe ILMN_3250273) (300 nM 8 hrs): 7.57E-01 | AveExpr.ST7612 TPRG1L (probe ILMN_1727479) (300 nM 8 hrs): 7.86E-01 | AveExpr.ST7612 TPST1 (probe ILMN_1651950) (300 nM 8 hrs): 7.51E-01 | AveExpr.ST7612 TPST2 (probe ILMN_1695432) (300 nM 8 hrs): 7.18E-01 | AveExpr.ST7612 TRAFD1 (probe ILMN_1758250) (300 nM 8 hrs): 8.52E-01 | AveExpr.ST7612 UBE2A (probe ILMN_2307455) (300 nM 8 hrs): 7.18E-01 | AveExpr.ST7612 UBTD1 (probe ILMN_1794914) (300 nM 8 hrs): 8.56E-01 | AveExpr.ST7612 UCP2 (probe ILMN_1685625) (300 nM 8 hrs): 7.30E-01 | AveExpr.ST7612 UNC84A (probe ILMN_1772316) (300 nM 8 hrs): 7.21E-01 | AveExpr.ST7612 UPLP (probe ILMN_3236765) (300 nM 8 hrs): 7.46E-01 | AveExpr.ST7612 VASH2 (probe ILMN_1692698) (300 nM 8 hrs): 7.31E-01 | AveExpr.ST7612 VPS8 (probe ILMN_1678268) (300 nM 8 hrs): 7.47E-01 | AveExpr.ST7612 WDR19 (probe ILMN_1655117) (300 nM 8 hrs): 7.77E-01 | AveExpr.ST7612 YPEL5 (probe ILMN_1711069) (300 nM 8 hrs): 6.99E-01 | AveExpr.ST7612 ZDHHC8 (probe ILMN_1789492) (300 nM 8 hrs): 8.85E-01 | AveExpr.ST7612 ZNF775 (probe ILMN_1691702) (300 nM 8 hrs): 7.39E-01 | log ratio 1999-08-31 (probe ILMN_1659953) (300 nM 8 hrs vs DMSO): 8.50E-01 | log ratio (probe ILMN_1816244) (300 nM 8 hrs vs DMSO): 7.08E-01 | log ratio (probe ILMN_1827736) (300 nM 8 hrs vs DMSO): 8.76E-01 | log ratio (probe ILMN_1909886) (300 nM 8 hrs vs DMSO): 7.98E-01 | log ratio AACS (ILMN_1698554) (300 nM 8 hrs vs DMSO): 6.24E-01 | log ratio ABCA7 (probe ILMN_1743205) (300 nM 8 hrs vs DMSO): 7.64E-01 | log ratio ABCC4 (ILMN_1788457) (300 nM 8 hrs vs DMSO): -8.19E-01 | log ratio ABCC4 (ILMN_2194009) (300 nM 8 hrs vs DMSO): -8.58E-01 | log ratio ABCE1 (ILMN_2330267) (300 nM 8 hrs vs DMSO): -7.82E-01 | log ratio ACAT2 (ILMN_1708672) (300 nM 8 hrs vs DMSO): -1.01E+00 | log ratio ACOT7 (ILMN_2332250) (300 nM 8 hrs vs DMSO): 6.55E-01 | log ratio ACSL3 (ILMN_2360705) (300 nM 8 hrs vs DMSO): 5.95E-01 | log ratio ACSL5 (ILMN_1705247) (300 nM 8 hrs vs DMSO): -1.24E+00 | log ratio ACSL5 (ILMN_2370882) (300 nM 8 hrs vs DMSO): -9.69E-01 | log ratio ADARB1 (probe ILMN_1679797) (300 nM 8 hrs vs DMSO): 7.60E-01 | log ratio ADD3 (ILMN_1787378) (300 nM 8 hrs vs DMSO): 6.27E-01 | log ratio ADD3 (ILMN_1814526) (300 nM 8 hrs vs DMSO): 6.45E-01 | log ratio ADD3 (ILMN_2311278) (300 nM 8 hrs vs DMSO): 6.14E-01 | log ratio ADIPOR2 (ILMN_2224833) (300 nM 8 hrs vs DMSO): 6.41E-01 | log ratio ADNP2 (ILMN_2080751) (300 nM 8 hrs vs DMSO): 6.66E-01 | log ratio ADRBK1 (ILMN_3307926) (300 nM 8 hrs vs DMSO): -6.13E-01 | log ratio ADSS (ILMN_2092664) (300 nM 8 hrs vs DMSO): -8.15E-01 | log ratio AFMID (ILMN_1707551) (300 nM 8 hrs vs DMSO): 6.36E-01 | log ratio AGTPBP1 (ILMN_1718071) (300 nM 8 hrs vs DMSO): 6.75E-01 | log ratio AKAP8 (ILMN_1741572) (300 nM 8 hrs vs DMSO): -8.28E-01 | log ratio AKAP13 (ILMN_2396956) (300 nM 8 hrs vs DMSO): 6.04E-01 | log ratio ALDH2 (probe ILMN_1793859) (300 nM 8 hrs vs DMSO): 8.03E-01 | log ratio ALDH3A2 (ILMN_1794825) (300 nM 8 hrs vs DMSO): 6.08E-01 | log ratio ALG14 (ILMN_2191822) (300 nM 8 hrs vs DMSO): -6.09E-01 | log ratio ALOX5 (probe ILMN_1680996) (300 nM 8 hrs vs DMSO): 8.46E-01 | log ratio ALS2 (ILMN_1750256) (300 nM 8 hrs vs DMSO): 6.20E-01 | log ratio AMOT (probe ILMN_1792409) (300 nM 8 hrs vs DMSO): 7.65E-01 | log ratio AMZ2 (ILMN_1801606) (300 nM 8 hrs vs DMSO): 6.00E-01 | log ratio ANAPC13 (ILMN_1793894) (300 nM 8 hrs vs DMSO): -1.08E+00 | log ratio ANKLE1 (ILMN_3243457) (300 nM 8 hrs vs DMSO): -8.03E-01 | log ratio ANKMY2 (ILMN_1784292) (300 nM 8 hrs vs DMSO): 5.99E-01 | log ratio ANKRD6 (ILMN_2178587) (300 nM 8 hrs vs DMSO): 6.74E-01 | log ratio ANKRD41 (ILMN_2091590) (300 nM 8 hrs vs DMSO): -9.47E-01 | log ratio ANP32B (ILMN_1684293) (300 nM 8 hrs vs DMSO): -9.66E-01 | log ratio APAF1 (probe ILMN_1659463) (300 nM 8 hrs vs DMSO): 8.78E-01 | log ratio APLP1 (probe ILMN_1763834) (300 nM 8 hrs vs DMSO): 8.17E-01 | log ratio APLP2 (ILMN_1710482) (300 nM 8 hrs vs DMSO): 5.98E-01 | log ratio ARFIP1 (ILMN_2403906) (300 nM 8 hrs vs DMSO): 5.95E-01 | log ratio ARG2 (ILMN_1800898) (300 nM 8 hrs vs DMSO): 6.68E-01 | log ratio ARID2 (ILMN_2182335) (300 nM 8 hrs vs DMSO): -6.15E-01 | log ratio ARL6IP1 (probe ILMN_1708416) (300 nM 8 hrs vs DMSO): 6.93E-01 | log ratio ARSB (ILMN_2242937) (300 nM 8 hrs vs DMSO): -9.59E-01 | log ratio ATG2A (probe ILMN_1756006) (300 nM 8 hrs vs DMSO): 8.92E-01 | log ratio ATP6V0C (ILMN_1789005) (300 nM 8 hrs vs DMSO): 6.37E-01
